Counter-ions that a name gives are not always drawn. Like-named read-outs stand apart in the source and are kept apart here.
Experiments:
[1] = tested on: passively sensitized rat peritoneal mast cells; test: antagonism of antigen-induced histamine release from passively sensitized rat peritoneal mast cells; type: cell-based; conditions: in vitro; for IC50: Mast cell, egg albumin antigen challenge
From the text: The method employed is similar to that described by Kusner, et al., Journal of Pharmacology and Experimental Therapeutics 184, 41-46 (1973). The test involves isolation of mast cells from the rat by lavage of the peritoneal cavity and isolation of the cellular material from the lavage fluid. The cells are sensitized by shaking in antiserum from rats sensitized as described above with respect to the passive cutaneous anaphylaxis test. The sensitized cells are then exposed to the egg albumin antigen and the release of histamine from the cells is measured by an automated fluorometric method. The inhibition of histamine release by the presence of a test compound during challenge of the sensitized cells is a measure of the activity of the test compound. Dose response curves are prepared employing various concentrations of the test substance and the concentration which inhibits histamine release by 50% (IC50) is determined by interpolation.

[2] = tested on: passive cutaneous anaphylaxis reaction (PCA) in the rat; test: passive cutaneous anaphylaxis reaction (PCA) in the rat; type: in vivo
Description: Activity of test compounds in the passive cutaneous anaphylaxis reaction (PCA) in the rat has been shown in the prior art to correlate with the utility of active compounds in the treatment of immediate hypersensitivity conditions such as asthma. Rat reaginic antiserum is prepared substantially according to the method of Mota, Immunology 7, 681-699 (1964) employing male Sprague-Dawley (Carworth Farms) or Wistar (Harlan) rats weighing 100-175 g. which are injected intramuscularly with a solution of egg albumin in saline at a dose of 10 mg. per kg. and intraperitoneally with 2×10^10 Bordetella pertussis organisms. Twelve days after injection, the serum is collected and the antibody titer is determined. The sera are pooled which contain sufficient antibody to cause a 10 mm. spot in the dorsal skin of the rat in the PCA test after dilution 10 fold. The highest dilution of antiserum capable of inducing PCA in the rat 48 to 72 hrs. after injection is normally in the range of 50-80. The selected reaginic anti-sera are stored frozen until use.
For carrying out the test, groups of 5 to 10 male Sprague-Dawley (Carworth Farms) rats, each rat weighing 100-150 g., are used. Forty-eight hours prior to the test, the animals are passively sensitized by intradermal injection of 0.1 ml. of diluted antiserum at various locations on the shaved skin of the back. A dilution of antiserum is used so that a spot following challenge of 20-25 mm. in diameter is obtained. […] A latent period of 48 hrs. is usually allowed before the animals are challenged. According to the usual screening procedure, 15 min. prior to challenge the test drug is administered either by intraperitoneal injection, intravenous injection, or orally by gavage. Challenge involves an intravenous injection of a dose of 25 mg./kg. of egg albumin and 25 mg./kg. of Evans' blue dye in saline. The dye serves simply as a marker. The response of the antigen challenge in the localities on the skin which have been previously sensitized results in increased capillary permeability at the sensitized site and leakage of the blue dye into the area surrounding the sensitized site. The PCA response is scored by measuring the mean spot diameter on the excised and reversed skin 20-30 min. after challange. In each experiment a group of control animals receiving no drug is employed. The percent inhibition of the PCA is calculated by determining the mean diameters of the spots in the control and treated animals and computing the difference between the squares of the mean diameters of the control animals and the treated animals and expressing this difference as a percentage of the square of the mean diameter of the control animals. Results are expressed as percent inhibition.
Rats may be injected intradermally with 0.1 ml. of a solution containing 1 mg./ml. histamine 10 min. prior to sacrificing. This permits a determination of whether the test compound is exerting an antihistaminic effect on the end organ rather than interfering with mediator release from the mast cells in inhibiting the PCA.
Various doses of test compound in parallel experiments are employed when a dose response curve is to be constructed for quantitative comparison of potencies among active compounds. The ID50, the dose at which 50% inhibition of the PCA occurs, is determined by interpolation. In other modifications, various time intervals are allowed between drug treatment and challenge to ascertain the duration of drug effect.

[3] = tested on: immunologically induced bronchoconstriction; test: allergic respiratory model in the rat (immunologically induced bronchoconstriction); type: in vivo; conditions: for ED50: 0.25 h, intraduodenal 15 min. prior to egg albumin challenge, half maximal response (ID1/2 max.), table titled Oral
[4] = Acute oral toxicity in the rat; conditions: in vivo
From the text: | *Acute oral toxicity in the rat.

[5] = range for Procedures 2, 3 and 36, read-out: IC50, inhibition of histamine release
[6] = 0.25 h, oral, rat, drug 15 min. prior to challenge, 50% inhibition of PCA, read-out: PCA Response (ID50, mg./kg.)
[7] = Rat2, oral, rat, 2 hr. interval between drug dosage and challenge, read-out: PCA Response (ID50, mg./kg.)

O=C(O)c1cc(=O)c2c(OCC(O)COc3cccc4oc(C(=O)O)cc(=O)c34)cccc2o1 [Cromolyn sodium, reference compound]
IC50 ([1]; read-out: IC50, inhibition of histamine release): 1000 nM
ED50 ([2]; intravenous, simultaneously with the antigen, rat, read-out: ID50 in the rat PCA test): ~1 mg/kg
activity on oral administration in PCA test ([2]; oral, rat): inactive
activity on oral administration in allergic respiratory test ([3]; oral): inactive

CCOC(=O)c1nc2sc3c(c2c(=O)[nH]1)CCCC3 [Procedure 2, ETHYL 3,4,5,6,7,8-HEXAHYDRO-4-OXOBENZOTHIENO[2,3-d]PYRIMIDINE-2-CARBOXYLATE]
LD50 [4]: > 3160 mg/kg
IC50 [1, 5]: 300 to 800 nM
potency in histamine release test relative to cromolyn sodium [1]: substantially more potent than cromolyn sodium
ED50 [2, 6]: 15.4 mg/kg
ED50 [3]: 3.8 mg/kg

O=C(O)c1nc2sc3c(c2c(=O)[nH]1)CCCC3 [Procedure 3, 3,4,5,6,7,8-HEXAHYDRO-4-OXOBENZOTHIENO[2,3-d]-PYRIMIDINE-2-CARBOXYLIC ACID DISODIUM SALT DIHYDRATE]
IC50 [1, 5]: 300 to 800 nM
potency in histamine release test relative to cromolyn sodium [1]: substantially more potent than cromolyn sodium

CCOC(=O)c1nc2sc(CC)c(C)c2c(=O)[nH]1 [Procedure 27, ETHYL 6-ETHYL-3,4-DIHYDRO-5-METHYL-4-OXOTHIENO[2,3-d]PYRIMIDINE-2-CARBOXYLATE]
ED50 [2, 6]: 11.4 mg/kg

CCOC(=O)c1nc2sc(CC(C)C)c(C)c2c(=O)[nH]1 [Procedure 28, ETHYL 3,4-DIHYDRO-5-METHYL-6-(2-METHYLPROPYL)-4-OXOTHIENO[2,3-d]PYRIMIDINE-2-CARBOXYLATE]
ED50 [2, 6]: < 5 mg/kg

CCOC(=O)c1nc2sc(CC)cc2c(=O)[nH]1 [Procedure 29, ETHYL 6-ETHYL-3,4-DIHYDRO-4-OXOTHIENO[2,3-d]PYRIMIDINE-2-CARBOXYLATE]
LD50 [4]: 1600 to 5000 mg/kg
ED50 [2, 6]: 3.1 mg/kg
ED50 [3]: 1 mg/kg

CCCCCCc1sc2nc(C(=O)O)[nH]c(=O)c2c1C [Procedure 36, 6-HEXYL-3,4-DIHYDRO-5-METHYL-4-OXOTHIENO[2,3-d]PYRIMIDINE-2-CARBOXYLIC ACID DISODIUM SALT HYDRATE]
IC50 [1, 5]: 300 to 800 nM
potency in histamine release test relative to cromolyn sodium [1]: substantially more potent than cromolyn sodium
ED50 [2, 6]: 15 mg/kg

Cc1c(CC(C)C)sc2nc(C(=O)O)[nH]c(=O)c12 [Procedure 43, 3,4-DIHYDRO-5-METHYL-6-(2-METHYLPROPYL)-4-OXOTHIENO[2,3-d]PYRIMIDINE-2-CARBOXYLIC ACID DISODUM SALT SESQUIHYDRATE]
ED50 [2, 6]: 6.7 mg/kg

CCc1cc2c(=O)[nH]c(C(=O)O)nc2s1 [Procedure 44, 6-ETHYL-3,4-DIHYDRO-4-OXOTHIENO[2,3-d]PYRIMIDINE-2-ARBOXYLIC ACID DISODIUM SALT DIHYDRATE]
ED50 [2, 6]: 13 mg/kg

Cc1c(CC(C)C)sc2nc(CO)[nH]c(=O)c12 [Procedure 53, 2-(HYDROXYMETHYL)-5-METHYL-6-(2-METHYLPROPYL)THIENO[2,3-d]PYRIMIDINE-4-(3H)-ONE]
ED50 [2, 7]: 28 mg/kg

O=c1[nH]c(CO)nc2sc3c(c12)CCCC3 [Procedure 55, 5,6,7,8-TETRAHYDRO-2-(HYDROXYMETHYL)BENZOTHIENO[2,3-d]-4(3H)-PYRIMIDINONE]
ED50 [2, 7]: 34 mg/kg

CCCCCCc1sc2nc(CO)[nH]c(=O)c2c1C [Procedure 56, 6-HEXYL-2-(HYDROXYMETHYL)-5-METHYLTHIENO[2,3-d]PYRIMIDINE-4-(3H)-ONE]
ED50 [2, 6]: 28 mg/kg

CCOC(=O)C(=O)Nc1sccc1C(N)=O [Procedure 83, Ethyl N-[3-(Aminocarbonyl)thien-2-yl]oxamate]
ED50 ([2]; oral, rat, read-out: oral ED50 in the rat PCA test for antiallergic activity): 4.5 mg/kg

Cc1c(CC(C)C)sc2nc(C(=O)O)[nH]c(=O)c12 [Procedure 97, 3,4-Dihydro-5-methyl-6-(2-methylpropyl)-4-oxothieno[2,3-d]pyrimidine-2-carboxylic Acid Dipotassium Salt]
ED50 ([2]; Rattus norvegicus, intravenous, rats, read-out: ID50 in the PCA test, intravenous): 0.14 mg/kg
ED50 ([2]; Rattus norvegicus, oral, rats, read-out: ID50 in the PCA test, oral): 2.7 mg/kg

— patent publication US4234581A, “Thieno[2,3-d]oxazines” (Mead Johnson & Company, priority 1979, dated 1980)
